Reference: ChEMBL document CHEMBL1201862, “PubChem BioAssay data set” (2004)
Counter-ions that a name gives are not always drawn. Active and inactive are the calls of the source.

Tests used:
[1] = target: T1, Fatty acid synthase (Homo sapiens, UniProt P49327); assay: FAS thioesterase domain inhibitors, dose response, biochemical, endpoint fluorescence intensity, uHTS hits (AID 624327); type: functional;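 also: fluorescence from hydrolysis of an O-methyl fluorescein acyl ester substrate by the enzyme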
[2] = target: T2, High affinity choline transporter 1 (Homo sapiens, UniProt Q9GZV3); assay: CHT inhibitors, dose response, cell-based, 5-point CRC, membrane potential dye (AID 504840); type: functional
T2 sequence (Q9GZV3 whole entry): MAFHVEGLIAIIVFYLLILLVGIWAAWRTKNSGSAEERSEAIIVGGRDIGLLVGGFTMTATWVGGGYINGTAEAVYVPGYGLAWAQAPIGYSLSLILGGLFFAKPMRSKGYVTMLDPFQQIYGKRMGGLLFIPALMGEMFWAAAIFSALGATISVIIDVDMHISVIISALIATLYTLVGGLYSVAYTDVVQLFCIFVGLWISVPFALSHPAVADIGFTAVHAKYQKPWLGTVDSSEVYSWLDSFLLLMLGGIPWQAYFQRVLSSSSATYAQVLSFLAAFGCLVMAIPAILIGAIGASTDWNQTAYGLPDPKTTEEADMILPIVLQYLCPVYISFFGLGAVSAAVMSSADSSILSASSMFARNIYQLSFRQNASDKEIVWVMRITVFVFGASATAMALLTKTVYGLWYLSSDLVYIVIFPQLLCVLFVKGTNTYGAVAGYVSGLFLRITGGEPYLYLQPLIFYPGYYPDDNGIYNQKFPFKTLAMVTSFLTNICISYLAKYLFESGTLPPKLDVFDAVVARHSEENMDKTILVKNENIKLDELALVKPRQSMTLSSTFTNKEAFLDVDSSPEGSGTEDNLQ

[3] = target: T1, Fatty acid synthase; assay: FAS thioesterase domain inhibitors, dose response, biochemical, kinetic fluorescence intensity (AID 624326); type: functional;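 also: rate of fluorescence rise from hydrolysis of a fluorogenic O-methyl fluorescein ester substrate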
[4] = target: T2, High affinity choline transporter 1; assay: CHT inhibitors, dose response, cell-based, 10-point CRC, membrane potential dye (AID 588401); type: functional;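 also: membrane potential dye fluorescence of choline-evoked depolarization via CHT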
[5] = target: T3, Carboxy-terminal domain RNA polymerase II polypeptide A small phosphatase 1 (Homo sapiens, UniProt Q9GZU7); assay: inhibitors of CTDSP1, concentration-response testing, biochemical assay, absorbance-based, actives from ultra-high-throughput screening (AID 540297); type: functional
T3 sequence (Q9GZU7 whole entry): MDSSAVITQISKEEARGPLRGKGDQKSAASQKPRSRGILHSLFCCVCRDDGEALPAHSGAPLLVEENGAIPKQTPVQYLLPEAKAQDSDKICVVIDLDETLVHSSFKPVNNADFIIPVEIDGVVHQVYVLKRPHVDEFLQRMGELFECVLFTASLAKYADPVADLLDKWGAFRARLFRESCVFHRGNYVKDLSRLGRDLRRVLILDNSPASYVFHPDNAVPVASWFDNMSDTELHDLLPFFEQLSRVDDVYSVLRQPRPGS

[6] = target: T4, Corticotropin-releasing factor receptor 2/Corticotropin-releasing factor-binding protein (Homo sapiens, UniProt P24387+Q13324); assay: Dose Response confirmation of uHTS hits for small molecule antagonists of the CRF-binding protein and CRF-R2 receptor complex.; type: functional; details: read-out: IC50_Mean
T4 sequence (Q13324 whole entry): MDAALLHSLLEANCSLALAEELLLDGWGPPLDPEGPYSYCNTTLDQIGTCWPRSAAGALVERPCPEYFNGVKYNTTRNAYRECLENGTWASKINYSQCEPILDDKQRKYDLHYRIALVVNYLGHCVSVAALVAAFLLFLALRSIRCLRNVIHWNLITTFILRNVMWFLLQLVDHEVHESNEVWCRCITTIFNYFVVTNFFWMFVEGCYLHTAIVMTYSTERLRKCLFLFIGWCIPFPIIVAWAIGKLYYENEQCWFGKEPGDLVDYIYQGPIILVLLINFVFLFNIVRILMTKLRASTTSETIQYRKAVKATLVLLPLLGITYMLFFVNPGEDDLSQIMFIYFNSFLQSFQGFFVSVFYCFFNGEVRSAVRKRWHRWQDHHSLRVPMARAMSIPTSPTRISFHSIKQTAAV
T4 sequence (P24387 whole entry): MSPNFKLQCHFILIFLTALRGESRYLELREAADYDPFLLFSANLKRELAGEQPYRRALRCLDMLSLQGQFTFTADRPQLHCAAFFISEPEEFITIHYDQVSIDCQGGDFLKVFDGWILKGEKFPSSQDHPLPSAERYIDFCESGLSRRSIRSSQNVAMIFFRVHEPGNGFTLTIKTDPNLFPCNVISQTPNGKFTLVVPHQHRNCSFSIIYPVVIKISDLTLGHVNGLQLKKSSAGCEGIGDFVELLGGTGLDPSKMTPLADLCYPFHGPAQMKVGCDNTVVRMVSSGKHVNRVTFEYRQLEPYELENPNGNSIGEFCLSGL

[7] = CRF-BP/CRF-R2 complex antagonists, dose response, cell-based, uHTS hits, 384-well (AID 651639); type: functional, Homo sapiens; details: read-out: IC50_Mean
[8] = target: T4, Corticotropin-releasing factor receptor 2/Corticotropin-releasing factor-binding protein; assay: activators of CRF receptor 2 with binding protein – uHTS hits, confirmation (AID 602473); type: functional; details: read-out: EC50_Mean
[9] = tested on: BJ; assay: cytotoxicity toward BJ-TERT fibroblasts, dose response, cell-based, RAS-independent, luminescence (AID 1933); type: functional; details: Homo sapiens
[10] = tested on: BJ; assay: cytotoxicity toward BJ-TERT-LT-ST fibroblasts, dose response, cell-based, RAS-independent, luminescence (AID 1935); type: functional; details: Homo sapiens;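 also: BJ fibroblasts immortalized with TERT plus LT and ST oncogenes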
[11] = Fluorescence-based cell-based high throughput dose response assay for inhibitors of the interaction of nucleotide-binding oligomerization domain containing 2 (NOD2) and the receptor-interacting serine-threonine kinase 2 (RIPK2).; type: functional; details: Homo sapiens
[12] = cytotoxicity toward DRD oncogenic fibroblasts, dose response, cell-based, non-viral oncogenic, luminescence (AID 1934); type: functional; details: Homo sapiens
[13] = tested on: BJ; assay: cells; type: functional, cell-based; details: Homo sapiens
[14] = target: Genome polyprotein (dengue virus type 2, UniProt P29990); assay: Dengue-2 NS5 methyltransferase inhibitors, primary screen, biochemical, confirmation dose response (AID 588689); type: functional
[15] = target: Heat shock protein HSP 90-alpha (Homo sapiens, UniProt P07900); type: functional, organism-based
[16] = target: Voltage-gated inwardly rectifying potassium channel KCNH2 (Homo sapiens, UniProt Q12809); details: Potency;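 also: confirmatory quantitative high-throughput screen measuring inhibition of hERG channel activity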
[17] = Luminescence Cell-Based Dose Retest to Confirm Inhibitors of Cancer Stem Cells. [Related pubchem assays (depositor defined):AID2717, AID2721]; type: functional; details: Homo sapiens
[18] = target: T5, Serine/threonine-protein phosphatase (Candida dubliniensis (strain CD36 / CBS 7987 / NCPF 3949 / NRRLY-17841) (Yeast), UniProt B9W6M3); assay: calcineurin pathway inhibitors in yeast reporter, dose response, S. cerevisiae, CDRE-lacZ, luminescence, secondary (AID 2388); type: functional, cell-based;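 also: yeast reporter cells carrying a calcineurin-responsive lacZ construct stimulated with calcium chloride; luminescent beta-galactosidase reporter signal in whole cells rather than isolated phosphatase activity; potency for inhibition where a drop in reporter signal means calcineurin blockade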
T5 sequence (B9W6M3 whole entry): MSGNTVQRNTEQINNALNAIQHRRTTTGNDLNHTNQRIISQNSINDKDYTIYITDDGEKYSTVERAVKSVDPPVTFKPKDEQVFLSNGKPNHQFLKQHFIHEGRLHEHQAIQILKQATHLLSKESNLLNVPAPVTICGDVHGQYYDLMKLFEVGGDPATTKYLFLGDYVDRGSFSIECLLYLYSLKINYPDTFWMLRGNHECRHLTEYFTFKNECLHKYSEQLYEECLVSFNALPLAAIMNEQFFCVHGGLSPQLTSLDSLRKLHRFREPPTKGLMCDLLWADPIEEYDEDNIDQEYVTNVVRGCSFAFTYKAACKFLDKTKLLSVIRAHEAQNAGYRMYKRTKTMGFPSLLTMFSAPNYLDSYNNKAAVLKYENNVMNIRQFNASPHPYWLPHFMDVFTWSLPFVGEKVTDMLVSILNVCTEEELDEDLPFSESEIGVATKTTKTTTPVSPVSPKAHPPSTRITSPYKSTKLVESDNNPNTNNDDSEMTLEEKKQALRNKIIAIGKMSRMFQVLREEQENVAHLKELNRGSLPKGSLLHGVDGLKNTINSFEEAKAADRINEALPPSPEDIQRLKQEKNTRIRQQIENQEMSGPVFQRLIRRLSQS

[19] = NIH-3T3 fibroblast cytotoxicity, dose response, cytotoxicity control, cell-based, fluorescence, Alamar Blue, secondary assay (AID 2327); type: functional;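 also: NIH-3T3 mouse fibroblasts cultured with fluconazole at 8 µg/mL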
[20] = tested on: Streptococcus sp. 'group A'; assay: growth inhibition of control SK(-) GAS strain, dose response, counter-screen for streptokinase expression inhibitor project, luminescence, kanamycin, BacTiterGlo, confirmation (AID 1900); type: functional, organism-based
[21] = C. albicans growth with fluconazole, confirmation, fluorescence, retest (AID 2467); type: functional, cell-based
[22] = tested on: Streptococcus; assay: Group A Streptococcus viability loss, dose response, counter-screen for streptokinase expression inhibitor project, luminescence, BacTiterGlo (AID 1915); type: functional, organism-based;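 also: potency for reduction of bacterial viability or growth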
[23] = target: T6, Activin receptor type-1 (Homo sapiens, UniProt Q04771); assay: Navigating the Kinome. Panel member name: ACVR1; type: functional
T6 sequence (Q04771 whole entry): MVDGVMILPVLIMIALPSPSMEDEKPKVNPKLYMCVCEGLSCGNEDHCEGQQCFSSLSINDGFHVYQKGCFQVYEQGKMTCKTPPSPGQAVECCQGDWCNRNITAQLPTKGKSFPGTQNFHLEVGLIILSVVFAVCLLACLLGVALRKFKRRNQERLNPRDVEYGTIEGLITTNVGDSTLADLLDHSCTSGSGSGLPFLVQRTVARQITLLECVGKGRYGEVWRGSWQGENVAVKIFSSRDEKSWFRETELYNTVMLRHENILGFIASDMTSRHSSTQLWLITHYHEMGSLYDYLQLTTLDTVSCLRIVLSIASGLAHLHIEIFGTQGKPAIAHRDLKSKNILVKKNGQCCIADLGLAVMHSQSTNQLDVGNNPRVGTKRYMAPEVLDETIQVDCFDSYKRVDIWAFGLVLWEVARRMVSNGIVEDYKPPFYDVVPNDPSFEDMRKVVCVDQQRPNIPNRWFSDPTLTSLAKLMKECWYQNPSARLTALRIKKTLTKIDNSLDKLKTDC

Chain of Voltage-gated inwardly rectifying potassium channel KCNH2 (Q12809 whole entry): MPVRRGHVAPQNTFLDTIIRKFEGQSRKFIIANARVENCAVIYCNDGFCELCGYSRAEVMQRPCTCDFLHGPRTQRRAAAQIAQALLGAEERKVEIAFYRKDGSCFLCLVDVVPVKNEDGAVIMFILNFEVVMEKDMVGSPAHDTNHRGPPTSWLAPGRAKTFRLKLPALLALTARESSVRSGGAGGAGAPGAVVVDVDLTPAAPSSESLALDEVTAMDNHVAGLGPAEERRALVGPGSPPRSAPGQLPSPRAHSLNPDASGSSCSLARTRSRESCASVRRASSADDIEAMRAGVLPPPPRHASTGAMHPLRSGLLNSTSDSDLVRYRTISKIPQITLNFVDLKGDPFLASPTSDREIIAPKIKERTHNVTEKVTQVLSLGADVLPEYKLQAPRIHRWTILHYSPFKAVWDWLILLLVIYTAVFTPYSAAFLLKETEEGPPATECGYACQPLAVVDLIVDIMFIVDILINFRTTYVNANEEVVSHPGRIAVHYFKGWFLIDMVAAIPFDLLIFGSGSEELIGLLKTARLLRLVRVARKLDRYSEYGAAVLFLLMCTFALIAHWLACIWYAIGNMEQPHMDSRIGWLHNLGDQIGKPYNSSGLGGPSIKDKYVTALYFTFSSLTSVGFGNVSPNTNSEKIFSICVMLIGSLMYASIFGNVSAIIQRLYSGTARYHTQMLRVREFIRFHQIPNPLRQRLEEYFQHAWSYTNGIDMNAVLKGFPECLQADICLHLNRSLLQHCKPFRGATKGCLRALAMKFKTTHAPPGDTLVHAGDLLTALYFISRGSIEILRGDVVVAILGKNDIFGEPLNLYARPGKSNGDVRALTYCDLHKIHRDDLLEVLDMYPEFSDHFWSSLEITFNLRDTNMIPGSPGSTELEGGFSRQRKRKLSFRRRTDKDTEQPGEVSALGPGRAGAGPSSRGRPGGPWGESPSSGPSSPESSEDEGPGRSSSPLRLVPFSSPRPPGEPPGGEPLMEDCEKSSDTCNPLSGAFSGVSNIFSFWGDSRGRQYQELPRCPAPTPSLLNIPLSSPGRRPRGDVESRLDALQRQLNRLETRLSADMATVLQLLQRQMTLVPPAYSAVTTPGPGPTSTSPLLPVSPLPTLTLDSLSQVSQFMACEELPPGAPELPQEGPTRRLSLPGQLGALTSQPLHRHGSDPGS
T1 sequence (P49327 whole entry, the tested form may be a part): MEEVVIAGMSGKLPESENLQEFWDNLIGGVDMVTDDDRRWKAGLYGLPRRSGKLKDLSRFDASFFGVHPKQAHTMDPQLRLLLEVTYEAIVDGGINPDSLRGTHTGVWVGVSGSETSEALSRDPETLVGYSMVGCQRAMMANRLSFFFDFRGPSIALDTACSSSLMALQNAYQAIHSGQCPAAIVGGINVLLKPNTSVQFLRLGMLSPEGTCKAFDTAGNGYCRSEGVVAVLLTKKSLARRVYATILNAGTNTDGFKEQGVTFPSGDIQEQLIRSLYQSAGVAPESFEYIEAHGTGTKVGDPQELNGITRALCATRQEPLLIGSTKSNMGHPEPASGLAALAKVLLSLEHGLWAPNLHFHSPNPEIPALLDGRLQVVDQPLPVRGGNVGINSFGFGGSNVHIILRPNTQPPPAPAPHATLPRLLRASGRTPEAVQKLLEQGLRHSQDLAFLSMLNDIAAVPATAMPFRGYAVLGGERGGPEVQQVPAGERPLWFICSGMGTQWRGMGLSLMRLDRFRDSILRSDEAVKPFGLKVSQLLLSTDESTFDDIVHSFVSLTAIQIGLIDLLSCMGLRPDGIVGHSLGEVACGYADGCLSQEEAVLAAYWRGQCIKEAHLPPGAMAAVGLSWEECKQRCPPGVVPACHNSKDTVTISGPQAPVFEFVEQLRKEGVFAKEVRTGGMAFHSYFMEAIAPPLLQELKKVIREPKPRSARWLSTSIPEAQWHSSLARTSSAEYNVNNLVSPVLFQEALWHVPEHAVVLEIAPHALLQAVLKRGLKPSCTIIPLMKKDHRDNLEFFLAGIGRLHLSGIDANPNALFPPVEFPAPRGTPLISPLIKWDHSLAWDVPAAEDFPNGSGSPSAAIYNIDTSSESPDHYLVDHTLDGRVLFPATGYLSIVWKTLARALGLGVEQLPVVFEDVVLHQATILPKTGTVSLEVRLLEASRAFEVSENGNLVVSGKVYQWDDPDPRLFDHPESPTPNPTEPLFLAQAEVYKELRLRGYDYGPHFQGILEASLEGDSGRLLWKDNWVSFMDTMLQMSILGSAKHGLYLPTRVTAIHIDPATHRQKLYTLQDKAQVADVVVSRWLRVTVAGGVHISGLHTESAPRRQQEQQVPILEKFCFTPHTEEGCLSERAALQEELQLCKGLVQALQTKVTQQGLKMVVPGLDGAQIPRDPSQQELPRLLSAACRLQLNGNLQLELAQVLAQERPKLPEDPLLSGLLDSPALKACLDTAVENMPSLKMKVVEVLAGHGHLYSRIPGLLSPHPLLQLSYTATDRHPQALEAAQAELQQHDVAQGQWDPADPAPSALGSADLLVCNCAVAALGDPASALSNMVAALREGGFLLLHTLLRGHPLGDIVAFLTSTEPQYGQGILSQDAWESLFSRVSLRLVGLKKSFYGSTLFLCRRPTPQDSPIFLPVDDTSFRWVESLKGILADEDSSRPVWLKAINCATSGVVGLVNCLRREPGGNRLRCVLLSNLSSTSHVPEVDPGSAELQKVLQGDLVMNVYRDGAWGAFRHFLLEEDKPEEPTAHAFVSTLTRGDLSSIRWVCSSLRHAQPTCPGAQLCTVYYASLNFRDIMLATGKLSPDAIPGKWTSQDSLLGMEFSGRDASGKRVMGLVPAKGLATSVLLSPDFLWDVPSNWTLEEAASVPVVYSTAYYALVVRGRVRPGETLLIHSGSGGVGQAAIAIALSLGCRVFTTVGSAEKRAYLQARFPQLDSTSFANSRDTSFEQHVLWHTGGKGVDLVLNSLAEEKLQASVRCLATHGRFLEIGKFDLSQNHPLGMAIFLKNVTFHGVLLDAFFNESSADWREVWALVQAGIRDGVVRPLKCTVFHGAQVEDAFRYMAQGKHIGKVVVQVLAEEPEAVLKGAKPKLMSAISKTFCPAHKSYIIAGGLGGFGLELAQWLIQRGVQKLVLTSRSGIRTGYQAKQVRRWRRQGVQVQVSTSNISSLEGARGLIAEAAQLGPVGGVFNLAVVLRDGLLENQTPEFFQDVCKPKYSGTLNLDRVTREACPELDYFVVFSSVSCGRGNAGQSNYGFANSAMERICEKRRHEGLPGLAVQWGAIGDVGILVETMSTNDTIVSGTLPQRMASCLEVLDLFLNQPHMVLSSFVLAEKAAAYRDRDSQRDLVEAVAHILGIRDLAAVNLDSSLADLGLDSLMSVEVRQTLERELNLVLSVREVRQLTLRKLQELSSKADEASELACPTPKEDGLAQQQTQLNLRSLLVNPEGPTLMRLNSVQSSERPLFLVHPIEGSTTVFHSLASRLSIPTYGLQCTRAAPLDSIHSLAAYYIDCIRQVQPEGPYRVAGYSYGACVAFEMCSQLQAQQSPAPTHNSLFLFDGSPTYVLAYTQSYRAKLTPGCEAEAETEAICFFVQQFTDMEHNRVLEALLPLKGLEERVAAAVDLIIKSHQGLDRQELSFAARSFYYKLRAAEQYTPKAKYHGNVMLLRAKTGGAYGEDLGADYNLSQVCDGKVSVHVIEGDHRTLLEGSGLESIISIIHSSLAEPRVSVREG
Chain of Genome polyprotein (P29990 2492-3391 limits assumed): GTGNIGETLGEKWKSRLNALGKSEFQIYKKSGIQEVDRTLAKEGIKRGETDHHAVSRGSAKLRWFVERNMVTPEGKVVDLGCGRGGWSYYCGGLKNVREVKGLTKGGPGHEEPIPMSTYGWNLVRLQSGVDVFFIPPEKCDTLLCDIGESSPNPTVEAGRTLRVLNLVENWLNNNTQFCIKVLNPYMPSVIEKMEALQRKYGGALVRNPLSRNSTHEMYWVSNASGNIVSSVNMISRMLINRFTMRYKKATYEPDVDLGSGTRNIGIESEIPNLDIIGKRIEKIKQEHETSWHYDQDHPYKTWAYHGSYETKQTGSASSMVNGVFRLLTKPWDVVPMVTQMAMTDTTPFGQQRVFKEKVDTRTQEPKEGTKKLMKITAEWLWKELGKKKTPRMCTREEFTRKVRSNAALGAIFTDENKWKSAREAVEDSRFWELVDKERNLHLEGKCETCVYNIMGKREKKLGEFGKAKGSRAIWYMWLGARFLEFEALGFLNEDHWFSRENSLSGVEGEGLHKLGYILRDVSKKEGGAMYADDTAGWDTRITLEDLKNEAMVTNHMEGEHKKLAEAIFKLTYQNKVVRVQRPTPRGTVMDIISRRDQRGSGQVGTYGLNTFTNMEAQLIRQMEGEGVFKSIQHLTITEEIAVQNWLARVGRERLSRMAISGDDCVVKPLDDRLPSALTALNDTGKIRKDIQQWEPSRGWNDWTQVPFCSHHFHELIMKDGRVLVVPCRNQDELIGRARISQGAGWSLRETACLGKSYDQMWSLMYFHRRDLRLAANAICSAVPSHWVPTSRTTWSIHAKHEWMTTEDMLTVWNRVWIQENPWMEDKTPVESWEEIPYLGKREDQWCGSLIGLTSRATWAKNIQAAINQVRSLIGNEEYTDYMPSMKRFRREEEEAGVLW

## Cn1c(/C=C/N(Cc2ccccc2)c2ccccc2)c([N+](=O)[O-])c(=O)n(C)c1=O
[1]
  IC50: 18.8 µM (active)
[2]
  IC50: 2.98 µM (active)
[3]
  IC50: 16.3 µM (active)
[4]
  IC50: 3.12 µM (active)

## CCOC(=O)C1=C(C)c2ccccc2OC1(C(=O)OCC)c1ccccc1 (configuration not stated)
[5]
  IC50: 34.2 µM (active)

## COc1ccc(-c2c(C)nn3c(N4CCCCCC4)cc(C)nc23)cc1OC
[6]
  IC50: 21.4 µM (active)
[7]
  IC50: > 20 µM (inactive)
[8]
  EC50: > 53 µM (inactive)

## CC1CCCCC1NC(=O)c1cccc(S(=O)(=O)N2CCN(C)CC2)c1 (configuration not stated)
[2]
  IC50: 4.37 µM (active)
[4]
  IC50: 4.22 µM (active)

## CC(C)(C)Cc1nnc(NC(=O)Cc2cccs2)s1
[5]
  IC50: 4.36 µM (active)

## C=CCOc1cccc(C(=O)/C=C2/C(=O)Nc3ccccc32)c1
[9]
  EC50: 5.47 µM (inconclusive)
[10]
  EC50: 7.99 µM (active)
[11]
  IC50: 5.51 µM (active)
[12]
  EC50: 9.43 µM (inconclusive)
[13]
  EC50: 31.5 µM (inconclusive)

## Cc1ccc(S(=O)(=O)Nc2ccc3ccccc3c2[N+](=O)[O-])cc1
[14]
  IC50: 31.7 µM (active)
[15]
  AC50: 8.19 µM (active)
[6]
  IC50: 18.7 µM (active)
[7]
  IC50: 14.9 µM (active)
[8]
  EC50: > 53 µM (inactive)

## CCN(CC)CCNC(=O)c1cc(S(C)(=O)=O)ccc1OC [TIAPRIDE HYDROCHLORIDE]
[16]
  AC50: 35.5 µM (inconclusive)

## CN(C)CCCCSC(=N)N
[16]
  AC50: 35.5 µM (inconclusive)

## COc1cc(CCc2ccccc2)c(C(=O)O)c(O)c1CC=C(C)C [AMORFRUTIN A]
[6]
  IC50: 7.93 µM (active)
[7]
  IC50: 12.1 µM (active)
[8]
  EC50: 35.2 µM (active)

## OCCN1CCN(c2ncnc3scc(-c4ccc(F)cc4)c23)CC1
[2]
  IC50: 6.59 µM (active)
[4]
  IC50: 7.51 µM (active)

## O=C(NN1C(=O)/C(=C/c2cccs2)SC1=S)c1ccncc1
[2]
  IC50: 7.57 µM (active)
[4]
  IC50: 7.13 µM (active)

## NCCNS(=O)(=O)c1cccc2c(Cl)cccc12
[16]
  AC50: 22.4 µM (inconclusive)

## O=C(COc1cccnc1[N+](=O)[O-])Nc1ncc(Cl)cc1Cl
[5]
  IC50: 6.27 µM (active)

## O=C(NNC1=C(C(=O)C(F)(F)F)CCC1)c1ccc(Br)cc1
[17]
  AC50: 3.16 µM (active)
[18]
  EC50: > 180 µM (inactive)
[19]
  EC50: > 75 µM (inactive)
[15]
  AC50: 1.11 µM (active)
[2]
  IC50: 11.2 µM (active)
[20]
  EC50: 1.02 µM (active)
[21]
  EC50: 0.152 µM (active)
[22]
  EC50: 2.23 µM (active)

## O=C(Nc1cccc(Cl)c1)Nc1ncc(CCNc2ncnc3ccsc23)s1 [SNS-314]
[23]
  Ki: > 3.98 µM (inactive)

## Cc1nn(CCc2nnn[nH]2)c2nc(-c3ccccc3)cc(C(F)(F)F)c12
[5]
  IC50: 7.45 µM (active)
